Among the data in DBAASP are MIC values, retold here.

≈ marks a conversion by molar mass, not a printed value. Some results are limits rather than exact numbers.

The MIC is the smallest concentration in the dilution series that meets the test's criterion for growth inhibition. A lower MIC goes with a more susceptible organism.

Some test systems named below: Staphylococcus aureus MR; Candida albicans; Escherichia coli BL21; Escherichia coli UB1005.
Common to all, as to test: ≥ marks a high value that may be exact or a test limit, other limits are often not marked, values filed in µg/mL are converted to µM
In assay [1] the test system is Staphylococcus aureus ATCC 49476.
Assay [2] concerns Pseudomonas aeruginosa ATCC 27853.
The subject of assay [3] is Pseudomonas aeruginosa PAO1.
Assay [4] concerns Streptococcus pyogenes M1T1 5448.
For assay [5], the system named is Salmonella enterica serovar Typhimurium.
Assay [6] relates to Enterococcus faecalis ATCC 29212.
Assay [7] has as its system Staphylococcus epidermidis.
Assay [8] relates to Staphylococcus aureus ATCC 25923.
The test system of assay [9] is Pseudomonas aeruginosa H103.
Assay [10] has as its system Staphylococcus aureus USA 300.

As to `CC[C@H](C)[C@H](NC(=O)[C@H](C)NC(=O)[C@H](CCCCN)NC(=O)CNC(=O)[C@H](C)NC(=O)[C@H](CO)NC(=O)[C@H](Cc1ccccc1)NC(=O)[C@H](CC(C)C)NC(=O)CNC(=O)CNC(=O)[C@H](C)NC(=O)[C@H](C)NC(=O)[C@H](Cc1cnc[nH]1)NC(=O)[C@H](Cc1cnc[nH]1)NC(=O)[C@@H](NC(=O)[C@@H](N)Cc1ccccc1)[C@@H](C)CC)C(=O)N[C@@H](Cc1cnc[nH]1)C(=O)N[C@@H](CCCN=C(N)N)C(=O)N[C@@H](CC(C)C)C(=O)N[C@H](C(=O)N[C@@H](CCCN=C(N)N)C(=O)N[C@@H](CCCN=C(N)N)C(=O)N[C@@H](CCCN=C(N)N)C(=O)N[C@@H](CCCN=C(N)N)C(=O)N[C@@H](CCCN=C(N)N)C(=O)O)[C@@H](C)CC` [FIHHAAGGLFSAGKAIHRLIRRRRR], the MIC was not below 177 µM against Staphylococcus aureus MR, 44.2 µM (≈ 128 µg/mL) in the assay on Candida albicans, not below 177 µM in [1] and 177 µM (≈ 512 µg/mL) in assay [2].
In the case of `CC[C@H](C)[C@H](NC(=O)[C@H](Cc1cnc[nH]1)NC(=O)[C@H](CCCCN)NC(=O)CNC(=O)[C@@H](NC(=O)[C@H](CO)NC(=O)[C@H](Cc1ccccc1)NC(=O)[C@H](CC(C)C)NC(=O)CNC(=O)CNC(=O)[C@@H](NC(=O)[C@@H](NC(=O)[C@H](Cc1cnc[nH]1)NC(=O)[C@H](Cc1cnc[nH]1)NC(=O)[C@@H](NC(=O)[C@@H](N)Cc1ccccc1)[C@@H](C)CC)[C@@H](C)CC)[C@@H](C)CC)C(C)C)C(=O)N[C@@H](Cc1cnc[nH]1)C(=O)N[C@@H](CCCN=C(N)N)C(=O)N[C@@H](CC(C)C)C(=O)N[C@H](C(=O)N[C@@H](CCCN=C(N)N)C(=O)N[C@@H](CCCN=C(N)N)C(=O)N[C@@H](CCCN=C(N)N)C(=O)N[C@@H](CCCN=C(N)N)C(=O)N[C@@H](CCCN=C(N)N)C(=O)O)[C@@H](C)CC` [FIHHIIGGLFSVGKHIHRLIRRRRR], the MIC in the assay with Staphylococcus aureus MR stood at 10.4 µM (≈ 32 µg/mL); in the assay with Candida albicans it was 41.6 µM (≈ 128 µg/mL); in assay [1], 5.2 µM (≈ 16 µg/mL); in assay [2], 41.6 µM (≈ 128 µg/mL).
On to `CC[C@H](C)[C@H](N)C(=O)N[C@H](C(=O)NCC(=O)NCC(=O)N[C@@H](CC(C)C)C(=O)N[C@@H](Cc1ccccc1)C(=O)N[C@@H](CO)C(=O)N[C@@H](C)C(=O)NCC(=O)N[C@@H](CCCCN)C(=O)N[C@@H](C)C(=O)N[C@H](C(=O)N[C@@H](Cc1cnc[nH]1)C(=O)N[C@@H](CCCN=C(N)N)C(=O)N[C@@H](CC(C)C)C(=O)N[C@H](C(=O)N[C@@H](CCCN=C(N)N)C(=O)N[C@@H](CCCN=C(N)N)C(=O)N[C@@H](CCCN=C(N)N)C(=O)N[C@@H](CCCN=C(N)N)C(=O)N[C@@H](CCCN=C(N)N)C(=O)O)[C@@H](C)CC)[C@@H](C)CC)[C@@H](C)CC` [IIGGLFSAGKAIHRLIRRRRR], for which the MIC was 26.2 µM (≈ 64 µg/mL) in the assay on Staphylococcus aureus MR, 26.2 µM (≈ 64 µg/mL) against Candida albicans, not below 52.3 µM in assay [1] and 105 µM (≈ 256 µg/mL) in [2].
`CC[C@H](C)[C@H](NC(=O)[C@H](CCCN=C(N)N)NC(=O)[C@H](CCC(N)=O)NC(=O)[C@@H](NC(=O)CNC(=O)[C@@H](N)Cc1c[nH]c2ccccc12)[C@@H](C)O)C(=O)N[C@@H](CCCCN)C(=O)N[C@@H](C)C(=O)N[C@@H](Cc1ccc(O)cc1)C(=O)N[C@@H](CC(C)C)C(=O)N[C@@H](CCCN=C(N)N)C(=O)N[C@@H](CCCN=C(N)N)C(=O)N[C@@H](CCC(=O)O)C(=O)N[C@H](C(=O)N[C@@H](CCCN=C(N)N)C(=O)N[C@@H](CCCCN)C(=O)N[C@@H](CCCN=C(N)N)C(=O)NCC(=O)N[C@@H](CCCN=C(N)N)C(=O)N[C@@H](CCCCN)C(=O)N[C@@H](C)C(=O)N[C@H](C(=O)N[C@H](C(=O)N[C@@H](C)C(=O)N[C@@H](Cc1c[nH]c2ccccc12)C(=O)O)[C@@H](C)CC)C(C)C)[C@@H](C)CC` [WGTQRIKAYLRREIRKRGRKAVIAW]: the values for the MIC (in the assay on Escherichia coli BL21; in assay [3]; in assay [4]) were 2 µM (≈ 6.23 µg/mL), 8 µM (≈ 24.9 µg/mL) and 0.5 µM (≈ 1.56 µg/mL), respectively.
Consider `CC[C@H](C)[C@H](NC(=O)[C@H](CCCN=C(N)N)NC(=O)[C@H](CCC(N)=O)NC(=O)[C@H](Cc1c[nH]c2ccccc12)NC(=O)CNC(=O)[C@H](C)N)C(=O)N[C@@H](CCCCN)C(=O)N[C@@H](C)C(=O)N[C@@H](Cc1ccc(O)cc1)C(=O)N[C@@H](CC(C)C)C(=O)N[C@@H](CCCN=C(N)N)C(=O)N[C@@H](CCCN=C(N)N)C(=O)N[C@@H](CCC(=O)O)C(=O)N[C@H](C(=O)N[C@@H](CCCN=C(N)N)C(=O)N[C@@H](CCCCN)C(=O)N[C@@H](CCCN=C(N)N)C(=O)NCC(=O)N[C@@H](CCCN=C(N)N)C(=O)N[C@@H](CCCCN)C(=O)N[C@@H](C)C(=O)N[C@H](C(=O)N[C@H](C(=O)N[C@@H](C)C(=O)N[C@@H](Cc1c[nH]c2ccccc12)C(=O)O)[C@@H](C)CC)C(C)C)[C@@H](C)CC` [AGWQRIKAYLRREIRKRGRKAVIAW], for which the MIC against Escherichia coli BL21 was 1 µM (≈ 3.08 µg/mL); in assay [3], 2 µM (≈ 6.17 µg/mL); in assay [4], 2 µM (≈ 6.17 µg/mL).
`CC[C@H](C)[C@H](NC(=O)[C@H](CCCN=C(N)N)NC(=O)[C@H](C)NC(=O)[C@H](CCCCN)NC(=O)[C@H](CCCN=C(N)N)NC(=O)CNC(=O)[C@@H](NC(=O)[C@H](CCCCN)NC(=O)[C@H](CCCN=C(N)N)NC(=O)[C@@H](NC(=O)[C@H](CCC(=O)O)NC(=O)[C@H](CCCN=C(N)N)NC(=O)[C@H](CCCN=C(N)N)NC(=O)[C@H](CC(C)C)NC(=O)[C@H](Cc1ccc(O)cc1)NC(=O)[C@H](C)NC(=O)[C@H](CCCCN)NC(=O)[C@@H](NC(=O)[C@H](Cc1c[nH]c2ccccc12)NC(=O)[C@H](CCC(N)=O)NC(=O)[C@H](CCCN=C(N)N)NC(=O)CNC(=O)[C@H](C)N)[C@@H](C)CC)[C@@H](C)CC)C(C)C)C(=O)N[C@@H](C)C(=O)N[C@@H](Cc1c[nH]c2ccccc12)C(=O)O` [AGRQWIKAYLRREIRKVGRKARIAW]: the MIC in the assay with Escherichia coli BL21 came out at 1 µM (≈ 3.08 µg/mL); in [3] it was 16 µM (≈ 49.3 µg/mL); in assay [4], 2 µM (≈ 6.17 µg/mL).
Consider `CC[C@H](C)[C@H](NC(=O)[C@H](CCCCN)NC(=O)[C@H](Cc1c[nH]c2ccccc12)NC(=O)[C@H](CCCNC(=N)N)NC(=O)[C@@H](N)CCCNC(=N)N)C(=O)N[C@H](C(=O)N[C@H](C(=O)N[C@H](C(=O)N[C@@H](CCCNC(=N)N)C(=O)N[C@@H](Cc1c[nH]c2ccccc12)C(=O)N[C@@H](CCCNC(=N)N)C(=O)N[C@@H](CCCNC(=N)N)C(=O)O)[C@@H](C)CC)C(C)C)C(C)C` [RRWKIVVIRWRR], for which the MIC stood at 2.8 µM (≈ 4.83 µg/mL) in assay [5]; 1.4 µM (≈ 2.41 µg/mL) against Escherichia coli UB1005; 1.4 µM (≈ 2.41 µg/mL) in assay [6]; 11.1 µM (≈ 19.1 µg/mL) with Candida albicans; 0.3 µM (≈ 0.517 µg/mL) in assay [7]; 0.7 µM (≈ 1.21 µg/mL) in assay [8]. Moreover, in assay [9], the MIC is 5.6 µM (≈ 9.66 µg/mL).
As for `CC[C@H](C)[C@H](NC(=O)[C@H](CCCCN)NC(=O)[C@H](CCCCN)NC(=O)CNC(=O)[C@H](CCC(=O)O)NC(=O)[C@H](CCC(N)=O)NC(=O)[C@@H](NC(=O)[C@H](CCCCN)NC(=O)[C@H](CCCCN)NC(=O)[C@H](CCCCN)NC(=O)[C@H](CC(C)C)NC(=O)[C@H](CCCN=C(N)N)NC(=O)[C@H](CCC(N)=O)NC(=O)[C@H](Cc1ccccc1)NC(=O)[C@@H](NC(=O)[C@H](CCCCN)NC(=O)[C@H](CCC(=O)O)NC(=O)[C@@H](NC(=O)CNC(=O)[C@H](C)N)[C@@H](C)O)[C@@H](C)CC)[C@@H](C)CC)C(=O)N[C@@H](C)C(=O)N[C@@H](CCCCN)C(=O)N[C@@H](CCCN=C(N)N)C(=O)N[C@@H](C)C(=O)N[C@@H](Cc1c[nH]c2ccccc12)C(=O)O` [AGTEKIFQRLKKKIQEGKKIAKRAW], the minimum inhibitory concentration (MIC) turned out to be 1 µM (≈ 2.96 µg/mL) in the assay on Escherichia coli BL21, 64 µM (≈ 189 µg/mL) in assay [3], 8 µM (≈ 23.7 µg/mL) in [10] and 0.25 µM (≈ 0.739 µg/mL) in assay [4].
For `CC[C@H](C)[C@H](NC(=O)[C@H](CCCN=C(N)N)NC(=O)[C@H](CCC(N)=O)NC(=O)[C@@H](NC(=O)[C@H](Cc1c[nH]c2ccccc12)NC(=O)[C@H](C)N)[C@@H](C)O)C(=O)N[C@@H](CCCCN)C(=O)N[C@@H](C)C(=O)N[C@@H](Cc1ccc(O)cc1)C(=O)N[C@@H](CC(C)C)C(=O)N[C@@H](CCCN=C(N)N)C(=O)N[C@@H](CCCN=C(N)N)C(=O)N[C@@H](CCC(=O)O)C(=O)N[C@H](C(=O)N[C@@H](CCCN=C(N)N)C(=O)N[C@@H](CCCCN)C(=O)N[C@@H](CCCN=C(N)N)C(=O)NCC(=O)N[C@@H](CCCN=C(N)N)C(=O)N[C@@H](CCCCN)C(=O)N[C@@H](C)C(=O)N[C@H](C(=O)N[C@H](C(=O)N[C@@H](C)C(=O)N[C@@H](Cc1c[nH]c2ccccc12)C(=O)O)[C@@H](C)CC)C(C)C)[C@@H](C)CC` [AWTQRIKAYLRREIRKRGRKAVIAW], the MIC in the assay on Escherichia coli BL21 stood at 2 µM (≈ 6.25 µg/mL); in assay [3], 8 µM (≈ 25 µg/mL); in [4] it was 2 µM (≈ 6.25 µg/mL).
